Tests used:
OAT3 = biological target: T1, OAT3 (Homo sapiens, UniProt Q8TCC7); assay: OTA uptake in OAT3-overexpressing HEK293 cells (screen and kinetics)
T1 sequence (Q8TCC7 1-542): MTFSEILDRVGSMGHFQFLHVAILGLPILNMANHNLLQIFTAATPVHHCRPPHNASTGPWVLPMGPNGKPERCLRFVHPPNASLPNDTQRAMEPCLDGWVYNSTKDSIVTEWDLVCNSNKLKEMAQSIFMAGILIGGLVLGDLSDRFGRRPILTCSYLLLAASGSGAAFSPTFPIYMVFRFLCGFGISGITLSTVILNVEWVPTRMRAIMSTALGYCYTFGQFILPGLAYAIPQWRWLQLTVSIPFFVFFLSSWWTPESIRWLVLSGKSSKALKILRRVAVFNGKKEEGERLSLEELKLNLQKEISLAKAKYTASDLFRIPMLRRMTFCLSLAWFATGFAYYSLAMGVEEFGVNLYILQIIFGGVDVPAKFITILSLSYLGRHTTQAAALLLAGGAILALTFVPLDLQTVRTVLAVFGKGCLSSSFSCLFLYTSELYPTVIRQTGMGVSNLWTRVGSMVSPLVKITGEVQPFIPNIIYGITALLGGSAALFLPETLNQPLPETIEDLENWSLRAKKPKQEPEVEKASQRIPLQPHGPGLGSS
Method: (§1) The following experiments were conducted at the University of Washington. Mock HEK293 cells and transporter-overexpressing HEK293 cells (i.e., OAT1–4, OCT2, MATE1/2K, OCTN1, OATP1A2), mock CHO cells, and OCTN2-overexpressing CHO cells were plated in 96 well plates coated with 0.05 mg/mL of poly-D-lysine in 50 μL DPBS at a density of 800,000 cells/mL and grown until reaching over 90% of confluence. […] For uptake experiments in MATE1- and MATE2-K-expressing HEK293 cells, the pH of the incubation buffer was adjusted to 8.0 to facilitate substrate uptake. For uptake experiments in OATP1A2-expressing and OAT4-expressing HEK293 cells, the pH of the incubation buffer was adjusted to 6.5 to mimic pH of the urinary filtrate, as these are apical transporters. The incubation buffer was kept at pH 7.4 for all other transporters. […] Uptake was quenched by removing the substrates/inhibitors and washing the cells 3 times with 200 μL of ice-cold HBSS++. […] The precipitated protein was allowed to dry and subsequently solubilized overnight in 1M NaOH, neutralized with 1 M HCl the next day, and measured by BCA assay.
(§2) All cellular-based assays were conducted in technical triplicate across three independent experiments. […] This cutoff was defined a priori. […] Jnet was then treated as the initial uptake rate, and Km and Vmax values were obtained by fitting the Michaelis–Menten equation to the substrate-concentration data as described above. Intrinsic clearance (CLint) was then calculated by the formula, CLint=Vmax/Km using Vmax and Km values as calculated above. […] At steady-state, the mass balance for intracellular concentrations assuming symmetric passive permeabilities (Papical = Pbasal, taken as Papp from mock assays) and apical efflux gives: Ccell= Cbasal/1+ ke/Pa where Cbasal is the concentration in the basal chamber and ke is the first-order elimination with respect to BCRP. Because the asymmetric efflux ratio ERa is defined as: ERa=1+ ke/Pa

human MRP2 = biological target: T2, human MRP2 (Homo sapiens, UniProt Q92887); assay: OTA uptake in MRP2-expressing Sf9 membrane vesicles; assay type: in vitro ADME; conditions: 10 μM OTA, 5 min
T2 construct: purchased BioIVT; host or cells: Sf9 cell-derived membrane vesicles
T2 sequence (Q92887 whole entry): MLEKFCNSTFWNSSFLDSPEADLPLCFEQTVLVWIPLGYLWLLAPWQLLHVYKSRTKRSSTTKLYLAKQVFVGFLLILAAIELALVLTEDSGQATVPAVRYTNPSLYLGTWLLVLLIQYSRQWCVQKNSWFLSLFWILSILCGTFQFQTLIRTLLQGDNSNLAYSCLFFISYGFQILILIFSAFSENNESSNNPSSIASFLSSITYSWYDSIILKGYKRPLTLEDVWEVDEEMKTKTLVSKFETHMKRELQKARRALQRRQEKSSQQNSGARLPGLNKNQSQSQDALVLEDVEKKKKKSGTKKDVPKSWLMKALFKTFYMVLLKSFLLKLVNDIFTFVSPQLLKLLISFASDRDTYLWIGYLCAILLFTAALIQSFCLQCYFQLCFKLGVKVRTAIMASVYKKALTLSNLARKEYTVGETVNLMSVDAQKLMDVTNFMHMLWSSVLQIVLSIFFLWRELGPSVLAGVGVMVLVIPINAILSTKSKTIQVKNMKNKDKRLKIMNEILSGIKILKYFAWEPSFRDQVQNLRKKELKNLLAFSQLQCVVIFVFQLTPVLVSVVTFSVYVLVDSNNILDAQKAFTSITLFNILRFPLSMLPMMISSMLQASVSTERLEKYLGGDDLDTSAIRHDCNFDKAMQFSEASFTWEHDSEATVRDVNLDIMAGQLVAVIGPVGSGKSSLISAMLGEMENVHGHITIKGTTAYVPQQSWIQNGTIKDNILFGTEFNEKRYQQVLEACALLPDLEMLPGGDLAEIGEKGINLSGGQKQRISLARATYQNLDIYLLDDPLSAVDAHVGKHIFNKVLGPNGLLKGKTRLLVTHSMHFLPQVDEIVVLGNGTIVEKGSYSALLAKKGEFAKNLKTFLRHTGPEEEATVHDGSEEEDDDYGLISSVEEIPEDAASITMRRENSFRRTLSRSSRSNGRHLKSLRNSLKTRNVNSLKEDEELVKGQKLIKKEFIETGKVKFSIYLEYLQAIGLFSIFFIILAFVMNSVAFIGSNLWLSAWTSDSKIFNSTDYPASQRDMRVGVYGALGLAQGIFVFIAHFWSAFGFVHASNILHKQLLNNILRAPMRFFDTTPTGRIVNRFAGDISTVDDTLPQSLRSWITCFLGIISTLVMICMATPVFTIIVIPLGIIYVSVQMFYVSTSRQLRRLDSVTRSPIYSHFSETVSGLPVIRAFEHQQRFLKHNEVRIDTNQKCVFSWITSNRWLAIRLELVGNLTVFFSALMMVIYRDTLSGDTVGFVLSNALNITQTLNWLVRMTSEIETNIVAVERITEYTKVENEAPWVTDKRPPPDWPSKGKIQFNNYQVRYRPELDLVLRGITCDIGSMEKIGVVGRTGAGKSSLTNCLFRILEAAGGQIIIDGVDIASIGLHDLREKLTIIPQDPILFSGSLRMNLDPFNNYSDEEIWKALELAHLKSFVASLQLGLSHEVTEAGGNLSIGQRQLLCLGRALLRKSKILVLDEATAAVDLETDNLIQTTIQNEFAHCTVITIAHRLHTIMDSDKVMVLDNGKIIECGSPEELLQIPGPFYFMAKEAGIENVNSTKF
Method: The following experiments were conducted at BioIVT.

SLC17A3 (NPT4) = conditions: OTA extracellular efflux; cited from earlier work
[1] = test system: human serum albumin (HSA); conditions: no reference given; cited from earlier work
OAT4 = biological target: T3, OAT4 (Homo sapiens, UniProt Q9NSA0); assay: OTA uptake in OAT4-overexpressing HEK293 cells (screen and kinetics)
T3 sequence (Q9NSA0 1-550): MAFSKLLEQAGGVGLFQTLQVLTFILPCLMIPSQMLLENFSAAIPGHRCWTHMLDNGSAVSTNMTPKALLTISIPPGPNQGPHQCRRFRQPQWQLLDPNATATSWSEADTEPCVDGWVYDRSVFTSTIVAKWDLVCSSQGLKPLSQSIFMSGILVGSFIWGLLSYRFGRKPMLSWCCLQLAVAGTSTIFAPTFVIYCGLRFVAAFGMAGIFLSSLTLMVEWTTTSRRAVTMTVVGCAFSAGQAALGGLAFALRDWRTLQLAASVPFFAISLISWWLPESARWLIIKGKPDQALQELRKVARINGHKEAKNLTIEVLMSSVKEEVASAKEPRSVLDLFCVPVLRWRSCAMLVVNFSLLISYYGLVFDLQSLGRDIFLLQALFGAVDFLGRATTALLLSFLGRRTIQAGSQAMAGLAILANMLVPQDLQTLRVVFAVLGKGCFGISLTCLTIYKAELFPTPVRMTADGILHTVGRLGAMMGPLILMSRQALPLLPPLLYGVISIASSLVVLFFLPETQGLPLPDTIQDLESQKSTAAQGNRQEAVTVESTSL
Method: as §1, §2

[2] = HEK293, 5 min, 37 °C, pH 6.5, mock-corrected

SMILES: C[C@@H]1Cc2c(Cl)cc(C(=O)N[C@@H](Cc3ccccc3)C(=O)O)c(O)c2C(=O)O1 [OTA, Ochratoxin A]
- Vmax (OAT3; HEK293, 5 min, 37 °C, pH 7.4, mock-corrected): 141.4 ± 30.3 pmol/mg/min
- microsomal CLint (OAT3; human, other cell line, pH 7.4): 56.1 ± 6.3 µL/min/mg
- Km at 5 min (OAT3; human, pH 7.4): 2.58 ± 0.83 µM
- MRP2-mediated OTA transport (human MRP2): no MRP2-mediated OTA transport
- Km (SLC17A3 (NPT4)): 803 µM
- bound to human serum albumin [1]: > 99%
- Km (OAT4; [2]): 6.38 ± 1.45 µM
- Vmax (OAT4; [2]): 96.9 ± 18.8 pmol/mg/min
- microsomal CLint (OAT4; human, other cell line, pH 6.5): 15.3 ± 0.8 µL/min/mg

— PMC12655426 (Pharmaceutics, 2025)
